Test results taken from ChEMBL document CHEMBL1147530, “Antimalarial activities of (+)-deoxoartemisitene and its novel C-11, 13 derivatives” (Bioorg Med Chem Lett, 2004).
Converted amounts (≈) assume the structure as drawn.

Key:
Plasmodium falciparum [1] = test: In vitro antimalarial activity against chloroquine-sensitive Plasmodium falciparum 3D7; format: functional, organism-based
Plasmodium falciparum [2] = test: In vitro antimalarial activity against chloroquine-resistant Plasmodium falciparum K1; format: functional, organism-based

Row | Compound | IC50 (Plasmodium falciparum [1]) [µg/mL] | IC50 (Plasmodium falciparum [2]) [µg/mL]
1 | C[C@@H]1CC[C@H]2[C@@H](CO)CO[C@@H]3O[C@]4(C)CC[C@@H]1[C@]32OO4 | < 0.0001 | 0.0006 (≈ 0.00211 µM)
2 | C[C@@H]1CC[C@H]2C(=O)CO[C@@H]3O[C@]4(C)CC[C@@H]1[C@]32OO4 | 0.02 (≈ 0.0745 µM) | 0.006 (≈ 0.0224 µM)
3 | C[C@@H]1CC[C@H]2[C@@H](CBr)CO[C@@H]3O[C@]4(C)CC[C@@H]1[C@]32OO4 | 0.01 (≈ 0.0288 µM) | 0.003 (≈ 0.00864 µM)
4 | C=C1CO[C@@H]2O[C@]3(C)CC[C@H]4[C@H](C)CC[C@@H]1[C@@]24OO3 | 0.02 (≈ 0.0751 µM) | 0.02 (≈ 0.0751 µM)
5 | C[C@@H]1CC[C@@H]2[C@]34OO[C@@](C)(CC[C@@H]13)O[C@H]4OC[C@]2(C)O | 0.07 (≈ 0.246 µM) | 0.05 (≈ 0.176 µM)
6 | C[C@@H]1CC[C@H]2[C@H](C=O)CO[C@@H]3O[C@]4(C)CC[C@@H]1[C@]32OO4 | 2.02 (≈ 7.15 µM) | 0.46 (≈ 1.63 µM)
7 | C[C@@H]1CC[C@H]2[C@@]3(CO[C@@H]4O[C@]5(C)CC[C@@H]1[C@]42OO5)CO3 | 0.03 (≈ 0.106 µM) | 0.01 (≈ 0.0354 µM)
8 | C[C@@H]1CC[C@H]2[C@H](CO)CO[C@@H]3O[C@]4(C)CC[C@@H]1[C@]32OO4 | 0.06 (≈ 0.211 µM) | 0.05 (≈ 0.176 µM)
9 | C[C@@H]1CC[C@H]2[C@@H](C)C(=O)O[C@@H]3O[C@@]4(C)CC[C@@H]1[C@]32OO4 [ARTEMISININ] | 0.01 (≈ 0.0354 µM) | 0.002 (≈ 0.00708 µM)
10 | C[C@@H]1CC[C@H]2[C@@H](C(=O)O)CO[C@@H]3O[C@]4(C)CC[C@@H]1[C@]32OO4 | 1.09 (≈ 3.65 µM) | 0.65 (≈ 2.18 µM)
11 | C[C@@H]1CC[C@H]2[C@H](CBr)CO[C@@H]3O[C@]4(C)CC[C@@H]1[C@]32OO4 | 0.0002 (≈ 0.000576 µM) | < 0.0001
12 | Cc1ccc(S(=O)(=O)OC[C@H]2CO[C@@H]3O[C@]4(C)CC[C@H]5[C@H](C)CC[C@@H]2[C@@]35OO4)cc1 | 0.3 (≈ 0.684 µM) | 0.05 (≈ 0.114 µM)
13 | C[C@@H]1CC[C@H]2[C@@H](C=O)CO[C@@H]3O[C@]4(C)CC[C@@H]1[C@]32OO4 | 0.12 (≈ 0.425 µM) | 3.01 (≈ 10.7 µM)
14 | C[C@H]1[C@H](OC(=O)CCC(=O)O)O[C@@H]2O[C@@]3(C)CC[C@H]4[C@H](C)CC[C@@H]1[C@@]24OO3 [ARTESUNATE] | 0.0002 (≈ 0.00052 µM) | 0.0006 (≈ 0.00156 µM)
15 | CCO[C@H]1O[C@@H]2O[C@@]3(C)CC[C@H]4[C@H](C)CC[C@@H]([C@H]1C)[C@@]24OO3 [ARTEMOTIL] | < 0.0001 | < 0.0001
16 | C[C@@H]1CC[C@H]2[C@@H](COC[C@H]3CO[C@@H]4O[C@]5(C)CC[C@H]6[C@H](C)CC[C@@H]3[C@@]46OO5)CO[C@@H]3O[C@@]4(C)CC[C@@H]1[C@]32OO4 | 0.04 (≈ 0.0726 µM) | 0.02 (≈ 0.0363 µM)
17 | C[C@@H]1CC[C@H]2[C@@H](COS(C)(=O)=O)CO[C@@H]3O[C@]4(C)CC[C@@H]1[C@]32OO4 | 0.09 (≈ 0.248 µM) | 0.06 (≈ 0.166 µM)
